Results as given in US12516038B2, “Inhibitors of antigen presentation by HLA-DR” (Janssen Pharmaceutica NV, priority 2020, dated 2026).

Experiments:
HLA-DRB1*0401 = HLA-DRB1*0401 (Homo sapiens (Human), UniProt P01903+P01911, A100K/A169T/DEL228-266/F76Y/I96L/K127E/L162R/M171V/N62H/P40V/Q125Y/R42H/S133A/S149N/S66Y/V115G/V209L/W38E); assay: HLA-DR4 HTRF assay; assay type: binding; settings: inhibition of loading of Alexa Fluor 647-labeled Cit-CII peptide onto HLA-DR4 (CLIP cleaved)
How it was run: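 HLA-DRB1*04:01 construct (α/β fused to human Fc, CLIP pre-cleaved by HRV3C overnight at 4° C) at 3 nM was preincubated 45 min with compound and 1 nM anti-Fc-Tb donor, then 40 nM Alexa647-Cit-CII1236-1249 peptide added. After 90 min at 37° C, the 665/620 nm HTRF ratio gave % inhibition; IC50 by nonlinear regression.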

[1] = tested on: HLA-DR4 restricted mouse T cell hybridoma line (DR4.CII.36.8) with HLA-DRB1*04:01-expressing Boleth cells; assay: HLA-DR4-restricted peptide-specific T cell-based assay (hybridoma assay); settings: Mus musculus, T-cell, 6 h, inhibition of IL-2 production, CII259-273 peptide presented by Boleth cells
How it was run: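 Boleth cells (HLA-DRB1*04:01 B cell line) pre-incubated with compound 1 h at 37° C. in DMEM/1% FCS, then DR4.CII.36.8 mouse T cell hybridoma (CII259-273-specific) added for 6 h with CII259-273 peptide. Supernatant mouse IL-2 by AlphaLISA; IC50 by 4-PL fit of 8-point duplicate titrations.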

Row | Compound | IC50 (HLA-DRB1*0401) [nM] | IC50 [1] [nM]
1 | Cc1cc([C@@H](Oc2ccc3c(c2C#N)OCCC3=O)c2ccc(C(N)=O)cc2)cc(C)n1 (single isomer, unassigned) [Example 110b, (*S)-4-(((8-cyano-4-oxochroman-7-yl)oxy)(2,6-dimethylpyridin-4-yl)methyl)benzamide] | 610 | 790
2 | Cc1c(O[C@@H]2CCCc3cc(C#N)ccc32)ccc2c1OCCC2=O (single isomer, unassigned) [Example 122a, (*R)-5-((8-methyl-4-oxochroman-7-yl)oxy)-5,6,7,8-tetrahydronaphthalene-2-carbonitrile] | 540 | 6300
3 | COc1cnccc1[C@H](Oc1ccc2c(c1)OCCC2=O)c1ccc(C(N)=O)cc1 (single isomer, unassigned) [Example 23a, (*R)-4-((3-methoxypyridin-4-yl)((4-oxochroman-7-yl)oxy)methyl)benzamide] | 450 | 10000
4 | Cc1c(OC(c2ccncc2)c2ccc(C(N)=O)cc2)ccc2c1OC(C)(C)CC2=O (racemic) [Example 113, (R,S)-4-(pyridin-4-yl((2,2,8-trimethyl-4-oxochroman-7-yl)oxy)methyl)benzamide] | 820 | 1000
5 | Cc1c(OC2CCCc3cc(C(N)=O)ccc32)ccc2c1OCCC2=O (racemic) [Example 123, (R,S)-5-((8-Methyl-4-oxochroman-7-yl)oxy)-5,6,7,8-tetrahydronaphthalene-2-carboxamide] | 520 | 15000
6 | Cc1c(OC2CCCc3cc(C#N)ccc32)ccc2c1OCCC2=O (racemic) [Example 122, (R,S)-5-((8-Methyl-4-oxochroman-7-yl)oxy)-5,6,7,8-tetrahydronaphthalene-2-carbonitrile] | 1100 | 15000
7 | NC(=O)c1ccc([C@@H](Oc2ccc3c(c2)OCCC3=O)c2ccncn2)cc1 (single isomer, unassigned) [Example 33a, (*R)-4-(((4-Oxochroman-7-yl)oxy)(pyrimidin-4-yl)methyl)benzamide] | 580 | 8700
8 | Cc1c(O[C@@H](c2ccncc2)c2ccc(C(N)=O)c(F)c2)c(F)cc2c1OCCC2=O (single isomer, unassigned) [Example 95b, (*S)-2-fluoro-4-(((6-fluoro-8-methyl-4-oxochroman-7-yl)oxy)(pyridin-4-yl)methyl)benzamide] | 220 | 1100
9 | Cc1cc([C@@H](Oc2ccc3c(c2C(C)C)OCCC3=O)c2ccc(C(N)=O)cc2)cc(C)n1 (single isomer, unassigned) [Example 106b, (*S)-4-((2,6-dimethylpyridin-4-yl)((8-isopropyl-4-oxochroman-7-yl)oxy)methyl)benzamide] | 740 | 370
10 | NC(=O)c1ccc([C@@H](Oc2ccc3c(c2)OCCC3=O)c2ccncc2-c2ccccc2)cc1 (single isomer, unassigned) [Example 25a, (*R)-4-(((4-oxochroman-7-yl)oxy)(3-phenylpyridin-4-yl)methyl)benzamide] | 480 | 6400
11 | Cc1c(O[C@@H]2CCc3cc(C(N)=O)ccc32)ccc2c1OCCC2=O (single isomer, unassigned) [Example 121a, (*R)-1-((8-methyl-4-oxochroman-7-yl)oxy)-2,3-dihydro-1H-indene-5-carboxamide] | 930 | > 15000
12 | Cc1cc(COc2ccc3c(c2C(C)C)OCCC3=O)cc(C)n1 [Example 117, 7-((2,6-Dimethylpyridin-4-yl)methoxy)-8-isopropylchroman-4-one] | 680 | 3100
13 | Cc1cc([C@@H](Oc2ccc3c(c2)OCCC3=O)c2ccc(C(N)=O)cc2)ccn1 (single isomer, unassigned) [Example 15b, (*S)-4-((2-Methylpyridin-4-yl)((4-oxochroman-7-yl)oxy)methyl)benzamide] | 770 | 8100
